In patent publication US20160338955A1, “ANTIGEN-SPECIFIC IMMUNOTHERAPY USING TOLERIZING LIPOSOMES” (PLS-Design GmbH, priority 2015, published 2016):
In brackets after ≈: the same amount, converted by molar mass. Read-outs that look alike come from different tables or passages of the source.

Legend:
[1] = rat, in vivo; cited from earlier work
[2] = system: experimental autoimmune encephalomyelitis; conditions: i.p. 5 μg/kg every 2 days; cited from earlier work
[3] = Solubility; format: physicochemical
Method: In water, the solubility of OVA is about one gram per ml of water. Methylated BSA (mBSA) has been used for immunization at a concentration of 50 mg/ml of 0.9% NaCl (Gent et al., 2014).
In water DexP (MW 516.4) is soluble at a concentration of 50 mg/ml (product information of Santa Cruz Biotechnology), in PBS at a concentration of at least 25 mg/ml (Anderson et al., 2010), and in 10 mM HEPES and 135 mM NaCl, pH 6.7, at a concentration of at least 50 mg/ml (Koning et al., 2006).

[4] = humans; cited from earlier work
[5] = system: Langerhans cells (LCs) and dermal dendritic cells (DDCs); conditions: LCs and DDCs primed in vitro; cited from earlier work
[6] = Release of calcitriol from PLGA-PEG-PLGA hydrogels; format: physicochemical
Method: The biodegradable PLGA-PEG-PLGA triblock polymer described in this example has a PLG/PEG weight ratio of 2.3 (70/30), and a lactide/glycolide molar ratio of approx. 15/1. Synthesis of the triblock copolymer is performed as described in Example 2.1. An aliquot of 20 μl of a stock solution of calcitriol (2 mg/ml; 4.8 mM) in absolute ethanol (Cayman/Biomol GmbH) is combined with 160 μl of 25% gel solution and 20 μl of 10×PBS (final concentration of calcitriol: 0.2 mg/ml or 0.48 mM; final concentration of ethanol: 10%).
The mixture of 5.1.1 is incubated for 2 minutes at 37° C. to induce gelling and overlayed with 200 μl of 1×PBS. At frequent time points the supernatant is removed by pipetting and stored at 4° C. The removed supernatant is replaced by fresh 200 μl of 1×PBS. Controls of the same concentration of calcitriol in 1×PBS without gel are incubated and sampled in parallel.
After 48 hours the samples and controls are analysed using a Vitamin D ELISA kit, according to the manual of the manufacturer (Euroimmun AG, Luebeck). The assay is applicable for the determination of 25-0H vitamin D3 and other hydroxylated vitamin D3 molecules, and sufficiently linear from 4.0 to 120 ng/ml of 25-0H vitamin D3 (cross reactivity with calcitriol: 45%).
In brief, 20 μl of diluted samples are mixed with 230 μl of sample buffer containing a biotin-labed 25-0H vitamin D derivative. 200 μl of the mixture are transferred to an ELISA well of an 8-well strip and incubated at room temperature for 2 hours. The wells are washed with 3×300 μl washing buffer. Peroxidase labelled steptavidin-conjugate (100 μl) is added and incubated for a further hour. The well is again washed 3× with 300 μl washing buffer. Tetramethyl-benzidine (100 μl) substrate solution is added and developed until sufficient coloring. The reaction is stopped by addition of 100 μl 0.5 M sulphuric acid and measured spectrometrically at 420 nm with reference 650 nm.

[7] = cited from earlier work

## C=C1/C(=C\C=C2/CCC[C@]3(C)[C@@H]([C@H](C)CCCC(C)(C)O)CC[C@@H]23)C[C@@H](O)C[C@@H]1O [calcitriol, 1α,25-dihydroxyvitamin D3]
[1]
  serum level of calcitriol to be kept below to avoid toxicity: below 250 ng/ml
[2]
  treated mice in which appearance of paralysis was prevented: 70%
[3]; 1:5 ethanol:PBS, pH 7.2, aqueous with cosolvent or surfactant or cyclodextrin, read-out: solubility in a 1:5 solution of ethanol:PBS, pH 7.2
  solubility: ~0.15 mg/mL (≈ 0.36 mM)
[3]; ethanol, organic solvent or mixture, read-out: solubility in ethanol
  solubility: ~50 mg/mL (≈ 120 mM)
[4]
  single oral dose relatively well tolerated (grade 1 to 2 adverse events): up to 165 μg
[5]
  calcitriol concentration required to effectively induce FoxP3(+)Tregs and FoxP3(−)IL-10(+)TR1 cells: 2.5 µM
[6]; after 12 hours
  hydrogel-embedded calcitriol released: approx. 45%
[6]; after 24 hours
  hydrogel-embedded calcitriol released: approx. 65%
[6]; after 48 hours
  hydrogel-embedded calcitriol released: approx. 85%
[6]; within the first 2 hours
  hydrogel-embedded calcitriol released: approx. 15%
[7]; in 0.2 ml normal saline
  calcitriol dose that can be administered as single bolus i.p. injection: up to 500 ng/mouse
[7]; single bolus i.p.
  calcitriol dose above which mice become hypercalcemic on day 2 or 3: higher than 750 ng/mouse
